From patent US10934302B1, “SHP2 phosphatase inhibitors and methods of use thereof” (Relay Therapeutics, Inc., priority 2018, dated 2021)

Legend:
[1] = test system: NCI—N87 (gastric cancer cells); test: Combination growth inhibition (isobologram), NCI-N87; assay type: cell-based; details: selumetinib (MEK inhibitor) combined with a SHP2 inhibitor of the instant disclosure, FIG. 2A
[2] = test system: NCI—H23 (KRAS G12C mutant non-small cell lung cancer cells); test: Combination growth inhibition (isobologram), NCI-H23; assay type: cell-based; details: ARS-1620 (KRAS G12C inhibitor) combined with a SHP2 inhibitor of the instant disclosure, FIG. 2B
KYSE520 = test: Combination growth inhibition (isobologram), KYSE520; assay type: cell-based; details: erlotinib (EGFR inhibitor) combined with a SHP2 inhibitor of the instant disclosure; KYSE520 cells; FIG. 1A
[3] = test system: NCI—H3122 (non-small cell lung cancer cells); test: Combination growth inhibition (isobologram), NCI-H3122; assay type: cell-based; details: crizotinib (ALK inhibitor) combined with a SHP2 inhibitor of the instant disclosure, FIG. 1B
[4] = test system: HuH-7 (hepatocellular carcinoma cells); test: Combination growth inhibition (isobologram), HuH-7; assay type: cell-based; details: AZD-4547 (FGFR inhibitor) combined with a SHP2 inhibitor of the instant disclosure; HuH-7 cells; FIG. 3
SHP2 = SHP2 (Homo sapiens (Human), UniProt Q06124); test: SHP2 allosteric inhibition assay (DiFMUP prompt fluorescence); assay type: biochemical; details: 0.25 nM SHP2 activated with 0.5 μM peptide IRS1_pY1172(dPEG8)pY1222; substrate DiFMUP

Structure (SMILES)	IC50 (SHP2) [nM]	other results
Cn1cnc2c(F)c(Nc3ccc(Br)cc3Cl)c(C(=O)NOCCO)cc21 [selumetinib]		growth inhibition (isobologram) [1]: synergistic growth inhibition
C=CC(=O)N1CCN(c2ncnc3c(F)c(-c4c(O)cccc4F)c(Cl)cc23)CC1 [ARS-1620]		growth inhibition (isobologram) [2]: synergistic growth inhibition
C#Cc1cccc(Nc2ncnc3cc(OCCOC)c(OCCOC)cc23)c1 [erlotinib]		growth inhibition (isobologram) (KYSE520): synergistic growth inhibition
C[C@@H](Oc1cc(-c2cnn(C3CCNCC3)c2)cnc1N)c1c(Cl)ccc(F)c1Cl [crizotinib]		growth inhibition (isobologram) [3]: synergistic growth inhibition
COc1cc(CCc2cc(NC(=O)c3ccc(N4CC(C)NC(C)C4)cc3)n[nH]2)cc(OC)c1 (stereo not shown) [AZD-4547]		growth inhibition (isobologram) [4]: synergistic growth inhibition
Cn1ccc2c(c1=O)CCCN2c1n[nH]c2nc(N3CCC4(CC3)Oc3ccccc3[C@H]4N)cnc12 [Example 57]	≤ 50	
COc1ccc2c(n1)[C@@H](N)C1(CCN(c3cnc4c(N5CCCc6ncccc65)n[nH]c4n3)CC1)C2 [Example 106]	≤ 50	
Cn1cc(-c2ccc3c(n2)CCCN3c2n[nH]c3nc(N4CCC5(CC4)Cc4ccccc4[C@H]5N)c(CO)nc23)cn1 [Example 101]	50 to 1000	
N[C@@H]1c2ccccc2CC12CCN(c1cnc(Sc3ccnc(Cl)c3Cl)cn1)CC2 [Example 130, (3S)-1′-{5-[(2,3-dichloropyridin-4-yl)sulfanyl]pyrazin-2-yl}-1,3-dihydrospiro[indene-2,4′-piperidin]-3-amine]	≤ 50	

Further lines, with some results ahead:

IC50 (SHP2) [nM]	Structure (SMILES)	other results
≤ 50	Nc1nccc(Sc2ccc(N3CCC4(CC3)Cc3ccc(F)cc3[C@H]4N)cn2)c1Cl [Example 218]	
≤ 50	Cc1nc(N2CCC3(CC2)Cc2ccccc2[C@H]3N)cnc1N1CCCc2ncccc21 [Example 197]	
1000 to 10000	N[C@@H]1c2ccccc2CC12CCN(c1cc(C(F)(F)F)c3nncn3n1)CC2 [Example 230]	
> 10000	N[C@@H]1c2ccccc2CC12CCN(c1ncc(N3CCCc4ccccc43)c(=O)[nH]1)CC2 [Example 210]	
> 10000	Cc1nc2c(N3CCCCC3)n[nH]c2nc1N1CCC2(CC1)Oc1ccccc1[C@H]2N [Example 162, (3R)-1′-[5-methyl-3-(piperidin-1-yl)-1H-pyrazolo[3,4-b]pyrazin-6-yl]-3H-spiro[1-benzofuran-2,4′-piperidin]-3-amine]	
50 to 1000	COc1nc(N2CCC3(CC2)Cc2ccccc2[C@H]3N)ncc1Sc1cccc(Cl)c1Cl [Example 262, (S)-1′-(5-((2,3-dichlorophenyl)thio)-4-methoxypyrimidin-2-yl)-1,3-dihydrospiro[indene-2,4′-piperidin]-1-amine]	
≤ 50	Cn1c(N2CCC3(CC2)Cc2ccccc2[C@H]3N)ncc(Sc2cccc(Cl)c2Cl)c1=O [Example 242, (S)-2-(1-amino-1,3-dihydrospiro[indene-2,4′-piperidin]-1′-yl)-5-((2,3-dichlorophenyl)thio)-3-methylpyrimidin-4(3H)-one]	
